The values below are quoted from earlier work in patent publication US20100092463A1, “Method for treating or preventing osteoporosis by reducing follicle stimulating hormone to cyclic physiological levels in a mammalian subject” (Searete LLC, a limited liability corporation of the State …, priority 2008, published 2010).

Where a SMILES comes first, the peptide text is derived from it. [ ]: non-standard residue; d: D form. d(hArg(Et2)) = CCN=C(NCC)NCCCC[C@@H](N)C(=O)O; hArg(Et2) = CCN=C(NCC)NCCCC[C@H](N)C(=O)O; dPhe(4-Cl) = N[C@H](Cc1ccc(Cl)cc1)C(=O)O; d2Nal = N[C@H](Cc1ccc2ccccc2c1)C(=O)O; dCit = NC(=O)NCCC[C@@H](N)C(=O)O; d3Pal = N[C@H](Cc1cccnc1)C(=O)O

For the data set the following is noted: most common adverse effects being nausea and headache.

Take `CC(=O)N[C@H](Cc1ccc2ccccc2c1)C(=O)N[C@H](Cc1ccc(Cl)cc1)C(=O)N[C@H](Cc1cccnc1)C(=O)N[C@@H](CO)C(=O)N[C@@H](Cc1ccc(O)cc1)C(=O)N[C@H](CCCNC(N)=O)C(=O)N[C@@H](CC(C)C)C(=O)N[C@@H](CCCNC(=N)N)C(=O)N1CCC[C@H]1C(=O)N[C@H](C)C(N)=O` [cetrorelix] (Ac-[d2Nal][dPhe(4-Cl)][d3Pal]SY[dCit]LRP[dA]-NH2): the tolerability entry is “well tolerated”.
As for `CCN=C(NCC)NCCCC[C@H](NC(=O)[C@H](CC(C)C)NC(=O)[C@@H](CCCCNC(=NCC)NCC)NC(=O)[C@H](Cc1ccc(O)cc1)NC(=O)[C@H](CO)NC(=O)[C@@H](Cc1cccnc1)NC(=O)[C@@H](Cc1ccc(Cl)cc1)NC(=O)[C@@H](Cc1ccc2ccccc2c1)NC(C)=O)C(=O)N1CCC[C@H]1C(=O)N[C@H](C)C(N)=O` [ganirelix] (Ac-[d2Nal][dPhe(4-Cl)][d3Pal]SY[d(hArg(Et2))]L[hArg(Et2)]P[dA]-NH2), the tolerability entry is recorded as “well tolerated”.
